According to ChEMBL document CHEMBL1143163, “Structures of the ligand-binding core of iGluR2 in complex with the agonists (R)- and (S)-2-amino-3-(4-hydroxy-1,2,5-thiadiazol-3-yl)propionic acid explain their unusual equipotency” (J Med Chem, 2008):

What was measured:
Glutamate receptor 4 = Glutamate receptor 4 (Homo sapiens, UniProt P48058); assay: Binding affinity at iGluR4o receptor expressed in sf9 cells by radioligand binding assay
[1] = target: Glutamate receptor ionotropic, kainate 2 (Homo sapiens, UniProt Q13002); assay: Binding affinity at iGluR6(V,C,R) receptor expressed in sf9 cells by radioligand binding assay
Glutamate receptor 1 = Glutamate receptor 1 (Homo sapiens, UniProt P42261); assay: Binding affinity at iGluR1o receptor expressed in sf9 cells by radioligand binding assay
Glutamate receptor 2 [2] = target: T1, Glutamate receptor 2 (Homo sapiens, UniProt P42262); assay: Binding affinity at iGluR2o(R) receptor expressed in sf9 cells by radioligand binding assay
Glutamate receptor 2 [3] = target: T1, Glutamate receptor 2; assay: Binding affinity at iGluR2 receptor S1S2J domain expressed in sf9 cells by radioligand binding assay
Glutamate receptor 3 = Glutamate receptor 3 (Homo sapiens, UniProt P42263); assay: Binding affinity at iGluR3o receptor expressed in sf9 cells by radioligand binding assay
Sequence of Glutamate receptor 3 (P42263 whole entry): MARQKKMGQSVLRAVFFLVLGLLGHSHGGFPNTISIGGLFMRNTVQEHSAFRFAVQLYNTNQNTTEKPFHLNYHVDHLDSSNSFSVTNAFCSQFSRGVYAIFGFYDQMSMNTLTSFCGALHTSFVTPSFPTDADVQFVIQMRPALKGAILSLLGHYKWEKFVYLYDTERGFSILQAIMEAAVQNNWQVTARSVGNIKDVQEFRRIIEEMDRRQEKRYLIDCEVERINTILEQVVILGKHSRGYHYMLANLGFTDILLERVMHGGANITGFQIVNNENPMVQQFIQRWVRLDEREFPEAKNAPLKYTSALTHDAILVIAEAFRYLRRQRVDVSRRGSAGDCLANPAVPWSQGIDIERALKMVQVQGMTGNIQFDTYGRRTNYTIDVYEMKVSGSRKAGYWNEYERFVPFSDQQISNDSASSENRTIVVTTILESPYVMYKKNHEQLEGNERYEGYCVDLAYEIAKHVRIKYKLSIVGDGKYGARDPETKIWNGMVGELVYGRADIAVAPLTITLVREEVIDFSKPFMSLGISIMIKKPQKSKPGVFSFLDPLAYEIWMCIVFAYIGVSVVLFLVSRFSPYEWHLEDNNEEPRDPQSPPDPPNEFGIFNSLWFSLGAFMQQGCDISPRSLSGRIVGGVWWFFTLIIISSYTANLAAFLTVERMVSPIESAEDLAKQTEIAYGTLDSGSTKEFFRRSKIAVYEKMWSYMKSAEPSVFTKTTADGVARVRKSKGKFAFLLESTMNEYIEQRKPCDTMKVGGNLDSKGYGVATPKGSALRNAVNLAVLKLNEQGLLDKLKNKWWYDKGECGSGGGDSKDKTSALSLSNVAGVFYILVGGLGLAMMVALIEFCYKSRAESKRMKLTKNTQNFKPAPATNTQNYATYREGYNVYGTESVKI

T1 sequence (P42262 whole entry, the tested form may be a part): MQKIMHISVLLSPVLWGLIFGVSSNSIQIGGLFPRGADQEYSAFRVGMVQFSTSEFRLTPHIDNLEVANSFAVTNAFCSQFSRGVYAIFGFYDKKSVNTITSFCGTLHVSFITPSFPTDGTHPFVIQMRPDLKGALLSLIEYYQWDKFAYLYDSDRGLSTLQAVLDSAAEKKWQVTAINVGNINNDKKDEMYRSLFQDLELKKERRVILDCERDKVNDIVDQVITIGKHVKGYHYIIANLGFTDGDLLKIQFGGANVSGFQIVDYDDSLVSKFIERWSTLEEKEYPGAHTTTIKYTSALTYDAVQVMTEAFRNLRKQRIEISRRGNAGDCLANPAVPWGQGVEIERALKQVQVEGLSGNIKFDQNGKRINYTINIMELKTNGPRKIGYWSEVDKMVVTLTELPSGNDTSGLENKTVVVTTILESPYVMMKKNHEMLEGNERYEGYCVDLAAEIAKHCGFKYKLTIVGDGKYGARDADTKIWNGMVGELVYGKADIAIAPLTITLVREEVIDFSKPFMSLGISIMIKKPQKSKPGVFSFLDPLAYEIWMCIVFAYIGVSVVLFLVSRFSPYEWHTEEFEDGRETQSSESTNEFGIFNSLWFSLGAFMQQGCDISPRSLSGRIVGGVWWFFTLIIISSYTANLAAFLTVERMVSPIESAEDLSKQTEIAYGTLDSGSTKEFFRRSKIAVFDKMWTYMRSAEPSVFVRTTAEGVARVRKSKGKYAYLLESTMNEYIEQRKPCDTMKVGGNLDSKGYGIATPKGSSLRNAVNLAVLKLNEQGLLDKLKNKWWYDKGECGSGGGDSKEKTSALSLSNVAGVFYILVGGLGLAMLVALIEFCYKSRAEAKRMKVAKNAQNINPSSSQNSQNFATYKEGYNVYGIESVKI
Sequence of Glutamate receptor 4 (P48058 whole entry): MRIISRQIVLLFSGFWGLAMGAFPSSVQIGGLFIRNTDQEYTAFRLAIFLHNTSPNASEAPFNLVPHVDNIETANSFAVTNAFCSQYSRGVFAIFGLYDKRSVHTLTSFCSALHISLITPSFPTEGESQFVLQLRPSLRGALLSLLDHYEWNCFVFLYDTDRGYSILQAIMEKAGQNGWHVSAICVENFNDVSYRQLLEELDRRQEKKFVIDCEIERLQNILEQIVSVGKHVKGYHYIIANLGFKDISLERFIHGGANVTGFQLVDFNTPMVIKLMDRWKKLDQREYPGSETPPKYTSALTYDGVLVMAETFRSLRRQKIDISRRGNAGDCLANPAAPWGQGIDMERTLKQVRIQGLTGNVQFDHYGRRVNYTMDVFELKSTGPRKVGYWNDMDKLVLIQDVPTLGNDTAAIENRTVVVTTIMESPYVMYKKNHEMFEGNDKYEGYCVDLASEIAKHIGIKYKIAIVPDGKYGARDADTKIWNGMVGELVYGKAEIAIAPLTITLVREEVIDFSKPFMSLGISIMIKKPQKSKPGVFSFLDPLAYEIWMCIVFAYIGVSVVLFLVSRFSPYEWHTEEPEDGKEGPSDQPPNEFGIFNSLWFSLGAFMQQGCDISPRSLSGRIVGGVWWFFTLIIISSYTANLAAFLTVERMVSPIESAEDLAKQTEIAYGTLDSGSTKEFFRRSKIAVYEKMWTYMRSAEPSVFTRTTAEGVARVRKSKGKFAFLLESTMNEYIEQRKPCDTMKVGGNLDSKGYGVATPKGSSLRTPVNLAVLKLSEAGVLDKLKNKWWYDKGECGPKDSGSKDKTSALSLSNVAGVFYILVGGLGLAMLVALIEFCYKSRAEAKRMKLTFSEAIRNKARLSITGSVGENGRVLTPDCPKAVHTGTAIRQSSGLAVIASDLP
Sequence of Glutamate receptor 1 (P42261 whole entry): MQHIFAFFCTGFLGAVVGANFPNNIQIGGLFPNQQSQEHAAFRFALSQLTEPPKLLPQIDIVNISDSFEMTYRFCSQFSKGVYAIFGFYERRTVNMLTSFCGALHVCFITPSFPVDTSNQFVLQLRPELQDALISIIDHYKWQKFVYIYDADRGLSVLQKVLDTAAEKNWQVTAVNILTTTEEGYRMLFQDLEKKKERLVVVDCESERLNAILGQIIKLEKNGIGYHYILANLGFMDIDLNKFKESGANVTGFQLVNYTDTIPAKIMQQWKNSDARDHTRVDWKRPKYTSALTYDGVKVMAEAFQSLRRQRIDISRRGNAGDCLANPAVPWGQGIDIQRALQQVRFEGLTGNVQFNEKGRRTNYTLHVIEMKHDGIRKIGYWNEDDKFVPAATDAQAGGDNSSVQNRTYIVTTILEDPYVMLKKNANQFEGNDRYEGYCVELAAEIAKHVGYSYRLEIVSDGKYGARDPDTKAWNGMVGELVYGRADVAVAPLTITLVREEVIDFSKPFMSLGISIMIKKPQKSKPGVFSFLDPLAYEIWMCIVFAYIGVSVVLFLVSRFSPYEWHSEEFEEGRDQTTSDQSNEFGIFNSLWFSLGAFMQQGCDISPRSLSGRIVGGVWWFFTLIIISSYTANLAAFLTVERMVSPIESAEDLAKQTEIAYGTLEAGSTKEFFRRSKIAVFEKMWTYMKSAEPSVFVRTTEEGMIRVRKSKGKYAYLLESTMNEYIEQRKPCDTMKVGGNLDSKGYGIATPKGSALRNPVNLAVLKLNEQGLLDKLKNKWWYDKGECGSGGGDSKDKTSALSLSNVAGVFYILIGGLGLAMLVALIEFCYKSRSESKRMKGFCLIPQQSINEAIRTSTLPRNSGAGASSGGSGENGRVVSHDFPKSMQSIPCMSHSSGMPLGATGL
Sequence of Glutamate receptor ionotropic, kainate 2 (Q13002 whole entry): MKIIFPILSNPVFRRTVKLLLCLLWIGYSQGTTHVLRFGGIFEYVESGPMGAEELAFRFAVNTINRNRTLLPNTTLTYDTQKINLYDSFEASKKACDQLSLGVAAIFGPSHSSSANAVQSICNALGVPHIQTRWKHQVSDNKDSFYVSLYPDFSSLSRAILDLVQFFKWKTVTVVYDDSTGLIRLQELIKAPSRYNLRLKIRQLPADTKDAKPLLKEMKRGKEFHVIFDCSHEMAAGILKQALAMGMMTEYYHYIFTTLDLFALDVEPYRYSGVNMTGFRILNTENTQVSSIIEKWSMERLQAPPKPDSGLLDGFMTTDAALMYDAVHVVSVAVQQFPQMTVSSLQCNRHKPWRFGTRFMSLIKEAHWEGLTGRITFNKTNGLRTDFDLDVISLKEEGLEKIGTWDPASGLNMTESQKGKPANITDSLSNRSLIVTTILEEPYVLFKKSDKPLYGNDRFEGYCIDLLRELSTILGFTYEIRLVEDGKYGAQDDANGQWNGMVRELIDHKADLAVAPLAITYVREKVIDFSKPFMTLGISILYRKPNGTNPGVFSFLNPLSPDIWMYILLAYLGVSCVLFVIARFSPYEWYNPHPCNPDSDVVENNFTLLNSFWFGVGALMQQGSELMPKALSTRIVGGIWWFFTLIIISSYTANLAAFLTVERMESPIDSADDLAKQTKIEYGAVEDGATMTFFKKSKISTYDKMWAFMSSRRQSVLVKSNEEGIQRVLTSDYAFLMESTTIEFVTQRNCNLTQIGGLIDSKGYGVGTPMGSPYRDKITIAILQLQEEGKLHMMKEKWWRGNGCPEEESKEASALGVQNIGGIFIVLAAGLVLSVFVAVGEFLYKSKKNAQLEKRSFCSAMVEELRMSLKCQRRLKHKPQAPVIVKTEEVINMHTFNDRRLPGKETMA

Structure (SMILES) | Ki (Glutamate receptor 4) [µM] | Ki [1] [µM] | Ki (Glutamate receptor 1) [µM] | Ki (Glutamate receptor 2 [2]) [µM] | Ki (Glutamate receptor 2 [3]) [µM] | Ki (Glutamate receptor 3) [µM]
N[C@H](Cc1ns[nH]c1=O)C(=O)O | 1.05 | > 1000 | 0.15 | 0.234 | 0.531 | 1.07
N[C@@H](Cc1nsnc1O)C(=O)O | 0.182 | > 100 | 0.185 | 0.273 | 0.323 | 0.16
